Reference: patent US10683315B2, “Prodrug of an HCV NS5B polymerase inhibitor and method of production and application thereof” (priority 2017, dated 2020)
“And” between values parts separate entries of the source, which are not always exact repeats. Equal values may be shown once.

How the values were obtained:
Huh7 cells = experiment: Cytotoxicity in Huh7 cells, ATPLite kit; type: cell-based, human
Description: The cytotoxicity of tested compositions comprising the prodrugs was evaluated concurrently in the same cell line Huh7 using an ATPLite kit (Perkin-Elmer, Boston, USA) in accordance with the manufacturer's instruction. The cell suspension in complete culture medium (DMEM 1×, Cellgro; cat. #10-013-CV) was transferred into 96-well plates with black walls and transparent bottoms (50 μl/well) with a final density of 7500 cells per well. Eighteen hours after planting the cells, serial drug dilutions (50 μl/well) were added. The plate with cells was incubated for 4 days at 37° C. in a humidified 5% CO2 atmosphere. The cells were then twice washed with PBS (200 μl/well) and lysed by adding a lytic buffer (50 μl/well); all reagents were taken from the ATPLite kit. Following a 5-minute stirring on a shaker, a substrate was added (50 μl/well). After an additional 5-minute incubation, the plate was kept for 10 minutes in the dark, and luminescence in the wells was measured using the multifunctional reader Victor^3 V 1420 (Perkin Elmer). The values of CC50 for tested prodrugs were measured from a cytotoxicity curve plotted using the GraphPad Prizm software.

[1] = Stability in human liver S9 fraction; type: in vitro ADME
Description: Proteins were deposited on ice for 15 min. The samples were then centrifuged for 10 min at 3000 rpm, and the supernatant (150 μl) was sampled for analysis.
Tolbutamide (Fluka) was used as the internal standard.

[2] = from Sofia et al. J. Med. Chem. 2010; cited from earlier work

Row | Structure (SMILES) | CC90 (Huh7 cells; Huh7, 10% FBS) | CC50 (Huh7 cells; Huh7, ATPLite, 4 days) | metabolic rate in human liver microsomal S9 fraction, times faster than cyclohexyl ester of formula A1 ([1]; ratio of T1/2 vs A1) | metabolic rate in human liver microsomal S9 fraction, times faster than Sovaldi ([1]; ratio of T1/2 vs Sovaldi) | T1/2 human S9 [2]
1 | C[C@H](N[P@](=O)(OC[C@H]1O[C@@H](n2ccc(=O)[nH]c2=O)[C@](C)(F)[C@@H]1O)Oc1ccccc1)C(=O)OC1CCC1 [Prodrug 1.1, cyclobutyl (S)-2-{(S)-[(2R,3R,4R,5R)-5-(3,4-dihydro-2,4-dioxo-2H-pyrimidin-1-yl)-3-hydroxy-4-methyl-4-fluoro-tetrahydrofuran-2-ylmethoxy]-phenoxy-phosphorylamino}-propanoate] | > 100 µM | > 100 µM | 28 times | 11 times | 
2 | CC(C)OC(=O)[C@H](C)N[P@](=O)(OC[C@H]1O[C@@H](n2ccc(=O)[nH]c2=O)[C@](C)(F)[C@@H]1O)Oc1ccccc1 [Sovaldi®, Sofosbuvir] |  |  |  |  | 34.2 min and 32.4 min
